Entries after “also recorded” stand apart in the source; their conditions may differ.
Columns and labels:
[1] = test system: P. aeruginosa; experiment: cell growth in the reporter assay; type: cell-based; settings: concentrations up to 400 μM
Procedure: Based on the above hypothesis, a competition assay of 2 and 3 against AI1, using strain PAO-JP2 (plasI-LVAgfp), was performed. […] It should be noted that this inhibition experiment was performed with competition against 1 μM AI1, a concentration typically produced by wild type P. aeruginosa (Pearson et al., Proc. Natl Acad. Sci. USA 92:1490-1494 (1995), which is hereby incorporated by reference in its entirety). […] It should also be noted that cell growth was not affected by the addition of 2 or 3 at concentrations up to 400 μM. Thus, it appears that compounds 2 and 3 act as specific inhibitors of QS controlled promoters. Compound 6 was also tested for its ability to compete against AI2, but no inhibition of the rhlI-gfp reporter gene was seen.

[2] = biological target: T1, LasR (Pseudomonas aeruginosa, UniProt P25084); experiment: lasI-gfp reporter agonist assay, PAO-JP2 (plasI-LVAgfp); type: cell-based, P. aeruginosa; settings: PAO-JP2 (plasI-LVAgfp), compounds made in solution phase, increasing concentrations (1, 100, 400 μM)
T1 construct: endogenous in cells; host or cells: P. aeruginosa PAO-JP2 (lasI, rhlI) harboring plasI-LVAgfp
T1 sequence (P25084 whole entry): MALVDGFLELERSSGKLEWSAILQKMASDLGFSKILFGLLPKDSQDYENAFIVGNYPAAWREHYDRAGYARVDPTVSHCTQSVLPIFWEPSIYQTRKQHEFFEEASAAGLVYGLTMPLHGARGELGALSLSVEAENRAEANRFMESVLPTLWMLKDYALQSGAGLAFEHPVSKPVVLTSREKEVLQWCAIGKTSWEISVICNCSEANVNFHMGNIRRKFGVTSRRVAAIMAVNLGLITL
Excerpt: Since this strain lacks the ability to produce natural AIs due to disruption of both AI synthase genes, activation of LasR relies on the addition of exogenous AI1. Expression of gfp (encoding green fluorescent protein) is under control of the LasR-AI1 inducible lasI promoter, allowing rapid screening for LasR agonists by measuring the level of GFP expression in their presence.
(§1) P. aeruginosa strain PAO-JP2 (lasI, rhlI) (Rahme et al., Science 268:1899-1902 (1995), which is hereby incorporated by reference in its entirety) harboring plasI-LVAgfp (Pearson et al., Proc. Natl Acad. Sci. USA 91:197-201 (1994), which is hereby incorporated by reference in its entirety) was grown at 37° C. in LB with 300 μg/ml carbenicillin. For agonist assays, an overnight culture was diluted to an OD600 of 0.1 and transferred to wells of a 96-well plate on which test compounds had previously been added and dried. The final concentration of each analog tested was roughly 400 μM, although this is an overestimate due to purity issues. Cells were then incubated for 6 hours at 37° C. with vigorous shaking. GFP expression was detected with a Molecular Imager (BioRad) (488 nm excitation and 695 nm bandpass filter) and quantified with ImageQuant software. The OD600 of cultures was determined to normalize GFP expression to cell density.
(§2) Reporter strains were grown overnight in LB plus 300 μg/ml carbenicillin at 37° C. and diluted to an OD600 of 0.1. Following an incubation of 1 hour, 200 μl of cell culture was added to individual wells of a 96 well plate containing appropriate amount of test compound(s). Plates were incubated for 6 hours and then scanned for fluorescence emission with a Molecular Imager (488 nm excitation and 695 nm bandpass filter). Fluorescence was quantified with ImageQuant software.

[3] = test system: Elastase B; experiment: elastase (Elastin Congo Red) assay, wild type strain PAO1; type: cell-based, P. aeruginosa PAO1; settings: wild type PAO1, 100 μM compound
Procedure: (§3) Pyocyanin, elastase, and biofilm were assayed as previously described (Smith et al., Chem. Biol. 10:81-89 (2003), which is hereby incorporated by reference in its entirety). Elastase activity produced by P. aeruginosa in the presence of AIs and competing 3-oxo-C12-D10 was determined by measuring breakdown of the substrate Elastin Congo Red.
(§4) For the elastase B assay, cells (PAO-JP2) were grown overnight in PTSB media (5% Peptone, 0.1% Tryptic Soy Broth) at 37° C., washed and diluted to an OD600 of 0.05, grown to mid-log phase, washed again, and re-suspended to an OD600 of 0.05. The culture was then added to test tubes containing test compound(s) and grown for 6 hours. Elastase B activity was quantified by incubation of 100 μl of filtered culture supernatant with 5 mg Elastin Congo Red substrate and 1 ml of 10 mM Tris pH 7.2, 1 mM CaCl2 for 6 hours at 37° C. with agitation. Elastase B activity is represented by the OD495 of the enzyme assay following reaction quenching with EDTA and centrifugation to remove unreacted substrate, divided by the OD600 of the cell culture. The same assay was run with strain PAO-1, however no exogenous autoinducers were added.

[4] = test system: pyocyanin; experiment: pyocyanin assay, strain PAO-JP2; type: cell-based, P. aeruginosa PAO-JP2; settings: PAO-JP2, 25 μM each of AI1 and AI2, 18 hours
Procedure: For the pyocyanin assay, cells were grown overnight in LB then washed in fresh media and diluted to an OD600 of 0.05. This culture was grown for 3-4 hours to mid-log phase (OD600 of 0.3-0.5), then diluted to an OD600 of 0.05, and aliquoted to test tubes containing an appropriate amount of test compound(s). Following 18 hours of growth, pyocyanin was extracted from filtered culture supernatants and quantified using standard methods (Essar et al., J. Bacteriol. 172:884-900 (1990), which is hereby incorporated by reference in its entirety).

[5] = biological target: T1, LasR; experiment: lasI-gfp reporter antagonist (competition against AI1) assay, PAO-JP2 (plasI-LVAgfp); type: cell-based, P. aeruginosa; settings: 100-fold excess concentration over AI1 (1 μM AI1)
Procedure: as §1
The methods were the same as described in Example 2 (GFP Reporter Assay), except that 1 μM AI1 was added to each well in combination with the library compound. The fluorescence/OD600 of each compound competing against AI1 was reported relative to the fluorescence/OD600 of the positive control of AI1 alone, which was set to 1. When strain PAO-JP2 (prhlI-LVAgfp) was used, the positive control was 1 μM AI1 and 10 μM AI2. Eight compounds that inhibited reporter gene expression by greater than 50% were identified (see, e.g., FIG. 6).
as §2

[6] = test system: Elastase B; experiment: elastase (Elastin Congo Red) assay, strain PAO-JP2; type: cell-based, P. aeruginosa PAO-JP2; settings: PAO-JP2, 50 μM compound, 5 μM AI1 and 10 μM AI2
Procedure: as §3, §4

CCCCCCCCCC(=O)CC(=O)NC1CCCCC1=O (racemic) [Compound 3, N-(2-oxocyclohexyl)-3-oxododecanamide]
effect on cell growth [1]: not affected | agonist activity (induction of lasI-gfp reporter) [2]: nearly unable to induce the reporter; also recorded: no agonist activity | elastase activity, % of the control level [3]: 30% | effect on pyocyanin production [4]: nearly complete inhibition | inhibition of GFP expression (lasI-gfp) [5]: 35% | elastase activity, % of the positive control level [6]: 60%

From patent publication US7498292B2, “Combinatorial libraries of autoinducer analogs, autoinducer agonists and antagonists, and methods of use thereof” (The Research Foundation of State University of New York, priority 2002, dated 2009)
